Laboratory results taken from ChEMBL document CHEMBL1130579, “Design and synthesis of curacin a analogs with varied side chain structures” (Bioorg Med Chem Lett, 1997).
Values after ≈ are worked out from the molar mass of the structure shown.

What follows are compounds tested against Tubulin alpha chain (Sus scrofa) (UniProt P02550) (assay: Compound was tested for percentage of tubulin polymerized at 50 uM dose of compound).
Assay type: functional

Tubulin alpha chain (Sus scrofa), sequence (P02550 whole entry, looked up): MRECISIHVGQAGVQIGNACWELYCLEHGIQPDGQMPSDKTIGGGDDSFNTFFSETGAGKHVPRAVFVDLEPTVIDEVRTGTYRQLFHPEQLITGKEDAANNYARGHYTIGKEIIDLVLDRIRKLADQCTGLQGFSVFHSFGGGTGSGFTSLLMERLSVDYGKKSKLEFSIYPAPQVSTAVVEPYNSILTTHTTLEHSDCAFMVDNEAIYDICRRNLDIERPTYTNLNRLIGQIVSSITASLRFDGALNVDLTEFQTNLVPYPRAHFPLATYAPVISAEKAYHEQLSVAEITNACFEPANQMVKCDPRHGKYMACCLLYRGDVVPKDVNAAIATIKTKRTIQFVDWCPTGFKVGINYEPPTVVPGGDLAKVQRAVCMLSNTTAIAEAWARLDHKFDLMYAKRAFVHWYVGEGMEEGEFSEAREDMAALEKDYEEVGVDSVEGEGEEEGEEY

Going from `CCCCCCCc1cccc(CC/C=C\[C@@H]2CSC([C@@H]3C[C@@H]3C)=N2)c1` to `CCCCCCc1ccc(CC/C=C\[C@@H]2CSC([C@@H]3C[C@@H]3C)=N2)cc1`, the Activity rises from 85% to 95%.

Compared with `C/C=C/CC/C=C\[C@@H]1CSC([C@@H]2C[C@@H]2C)=N1`, `CC(C)=C/C=C/CC/C=C\[C@@H]1CSC([C@@H]2C[C@@H]2C)=N1` is higher in Activity: 84% for the first, 100% for the second.

Compared with `C[C@H]1C[C@H]1C1=N[C@H](/C=C\CCc2ccccc2)CS1`, `C[C@H]1C[C@H]1C1=N[C@H](/C=C\CCCc2ccccc2)CS1` is higher in Activity: 71% for the first, 93% for the second.

In the case of `CCCCCCCCCCCC/C=C\[C@@H]1CSC([C@@H]2C[C@@H]2C)=N1`, the Activity is reported as 100%.

These compounds were tested on WiDr (assay: Compound was tested for its cytotoxicity against WiDr human colon cancer cell line).
Assay type: functional, cell-based

Going from `CCCCCCCc1cccc(CC/C=C\[C@@H]2CSC([C@@H]3C[C@@H]3C)=N2)c1` to `CCCCCCc1ccc(CC/C=C\[C@@H]2CSC([C@@H]3C[C@@H]3C)=N2)cc1`, the IC50 falls from 69.3 µg/mL (≈ 187 µM) to 42.5 µg/mL (≈ 119 µM) (1.6-fold).

Going from `C/C=C/CC/C=C\[C@@H]1CSC([C@@H]2C[C@@H]2C)=N1` to `C=CC[C@@H](CC/C(C)=C/C=C/CC/C=C\[C@@H]1CSC([C@@H]2C[C@@H]2C)=N1)OC` [CURACIN A], the IC50 falls from 33.7 µg/mL (≈ 143 µM) to under 0.2 µg/mL.

`C[C@H]1C[C@H]1C1=N[C@H](/C=C\CCc2ccccc2)CS1` and `C[C@H]1C[C@H]1C1=N[C@H](/C=C\CCCc2ccccc2)CS1` are within 1.5-fold of each other in IC50: 19.6 µg/mL (≈ 72.3 µM) for the first, 19.3 µg/mL (≈ 67.6 µM) for the second.

Compound `CCCCCCCCCCCC/C=C\[C@@H]1CSC([C@@H]2C[C@@H]2C)=N1` has an IC50 of 84.9 µg/mL (≈ 253 µM).

The compounds below were run against T1, Tubulin alpha chain (Sus scrofa, UniProt P02550) (assay: Compound was evaluated for its anti tubulin activity).
T1 sequence (P02550 whole entry, looked up): as above

For `C=CC[C@@H](CC/C(C)=C/C=C/CC/C=C\[C@@H]1CSC(C2CC2C)=N1)OC` (single isomer, unassigned) [CURACIN A], the IC50 was 2.5 µM.

What follows are compounds tested against T1, Tubulin alpha chain (assay: Compound was tested for inhibitory activity against tubulin polymerization).
Assay type: functional

`CCCCCCCc1cccc(CC/C=C\[C@@H]2CSC([C@@H]3C[C@@H]3C)=N2)c1` and `CCCCCCc1ccc(CC/C=C\[C@@H]2CSC([C@@H]3C[C@@H]3C)=N2)cc1` cannot be ordered by IC50: over 50 µM for the first, over 50 µM for the second.

`C/C=C/CC/C=C\[C@@H]1CSC([C@@H]2C[C@@H]2C)=N1` and `CC(C)=C/C=C/CC/C=C\[C@@H]1CSC([C@@H]2C[C@@H]2C)=N1` cannot be ordered by IC50: over 50 µM for the first, over 50 µM for the second.

`C[C@H]1C[C@H]1C1=N[C@H](/C=C\CCc2ccccc2)CS1` and `C[C@H]1C[C@H]1C1=N[C@H](/C=C\CCCc2ccccc2)CS1` cannot be ordered by IC50: over 50 µM for the first, over 50 µM for the second.

First: C=CC[C@@H](CC/C(C)=C/C=C/CC/C=C\[C@@H]1CSC([C@@H]2C[C@@H]2C)=N1)OC [CURACIN A]
Second: CCCCCCCCCCCC/C=C\[C@@H]1CSC([C@@H]2C[C@@H]2C)=N1
The IC50 of the first is lower: 2.5 µM for the first, over 50 µM for the second.

What follows are compounds tested on NCI-H69 (assay: Compound was tested for its cytotoxicity against NCI-H69 human lung cancer cell line).
Assay type: functional, cell-based

`CCCCCCCc1cccc(CC/C=C\[C@@H]2CSC([C@@H]3C[C@@H]3C)=N2)c1` and `CCCCCCc1ccc(CC/C=C\[C@@H]2CSC([C@@H]3C[C@@H]3C)=N2)cc1` are within 1.5-fold of each other in IC50: 64.7 µg/mL (≈ 175 µM) for the first, 76.5 µg/mL (≈ 215 µM) for the second.

First: C/C=C/CC/C=C\[C@@H]1CSC([C@@H]2C[C@@H]2C)=N1
Second: C=CC[C@@H](CC/C(C)=C/C=C/CC/C=C\[C@@H]1CSC([C@@H]2C[C@@H]2C)=N1)OC [CURACIN A]
The IC50 of the first is 36-fold higher: 31.7 µg/mL (≈ 135 µM) for the first, 0.89 µg/mL (≈ 2.38 µM) for the second.

`C[C@H]1C[C@H]1C1=N[C@H](/C=C\CCc2ccccc2)CS1` and `C[C@H]1C[C@H]1C1=N[C@H](/C=C\CCCc2ccccc2)CS1` are within 1.5-fold of each other in IC50: 34.1 µg/mL (≈ 125 µM) for the first, 45.2 µg/mL (≈ 158 µM) for the second.

Compound `CCCCCCCCCCCC/C=C\[C@@H]1CSC([C@@H]2C[C@@H]2C)=N1` has an IC50 of 54.1 µg/mL (≈ 161 µM).

The compounds below were run on PC-9 (assay: Compound was tested for its cytotoxicity against PC-9 human lung cancer cell line).
Assay type: functional, cell-based

`CCCCCCCc1cccc(CC/C=C\[C@@H]2CSC([C@@H]3C[C@@H]3C)=N2)c1` and `CCCCCCc1ccc(CC/C=C\[C@@H]2CSC([C@@H]3C[C@@H]3C)=N2)cc1` are within 1.5-fold of each other in IC50: 35.5 µg/mL (≈ 96.1 µM) for the first, 50.2 µg/mL (≈ 141 µM) for the second.

Going from `C/C=C/CC/C=C\[C@@H]1CSC([C@@H]2C[C@@H]2C)=N1` to `C=CC[C@@H](CC/C(C)=C/C=C/CC/C=C\[C@@H]1CSC([C@@H]2C[C@@H]2C)=N1)OC` [CURACIN A], the IC50 falls from 37.7 µg/mL (≈ 160 µM) to 19.6 µg/mL (≈ 52.5 µM) (1.9-fold).

`C[C@H]1C[C@H]1C1=N[C@H](/C=C\CCc2ccccc2)CS1` and `C[C@H]1C[C@H]1C1=N[C@H](/C=C\CCCc2ccccc2)CS1` are within 1.5-fold of each other in IC50: 30.1 µg/mL (≈ 111 µM) for the first, 24 µg/mL (≈ 84 µM) for the second.

Compound `CCCCCCCCCCCC/C=C\[C@@H]1CSC([C@@H]2C[C@@H]2C)=N1` has an IC50 of 77.2 µg/mL (≈ 230 µM).
